Assay results: patent publication US12077503B2, “Substituted cyclic amides and their use as herbicides” (FMC CORPORATION, priority 2015, dated 2024)
Read-outs that look alike come from different tables or passages of the source.

Columns and labels:
[1] = system: blackgrass (Alopecurus myosuroides); experiment: Test A postemergence; assay type: in vivo; settings: Alopecurus myosuroides, post-emergence, 240 h; for pest or weed control at 125 g/ha: 125 g ai/ha; for pest or weed control at 500 g/ha: 500 g ai/ha
Procedure, shortened: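 Seeded soil received test chemicals as a preemergence directed spray, and seedlings at one to two leaves, 2–10 cm tall, received them postemergence, in a non-phytotoxic, surfactant-containing solvent mixture. Pots were held in a greenhouse for approximately 10 d, then rated for injury from 0, no effect, to 100, complete control.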

[2] = system: barnyardgrass (Echinochloa crus-galli); experiment: Test B flooded paddy test; assay type: in vivo; settings: Flood, 250 g ai/ha, 0 to 100 scale where 0 is no effect and 100 is complete control
Procedure, shortened: (§1)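 Greenhouse paddy pots with 2-leaf stage plants received compound by direct addition to floodwater 3 cm deep, kept at that level. Scored visually at 13–15 d versus controls (0 no effect; 100 complete control).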

rice (Oryra sativa) = experiment: Test B flooded paddy test; assay type: in vivo; settings: Flood, 250 g ai/ha, 0 to 100 scale where 0 is no effect and 100 is complete control
Procedure, shortened: as §1

[3] = system: ducksalad (Heteranthera limosa); experiment: Test B flooded paddy test; assay type: in vivo; settings: Flood, 250 g ai/ha, 0 to 100 scale where 0 is no effect and 100 is complete control
Procedure, shortened: as §1

[4] = system: sedge, umbrella (small-flower umbrella sedge, Cyperus difformis); experiment: Test B flooded paddy test; assay type: in vivo; settings: Flood, 250 g ai/ha, 0 to 100 scale where 0 is no effect and 100 is complete control
Procedure, shortened: as §1

[5] = system: ryegrass, Italian (Italian ryegrass, Lolium multiflorum); experiment: Test C preemergence; assay type: in vivo; settings: for Plant response rating, Ryegrass, Italian: scale 0 to 100, 0 no effect, 100 complete control
Procedure, shortened: (§2)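 Preemergence: sow in loam-sand soil and treat. Postemergence: grow in peat-moss/vermiculite medium to 2–18 cm (1–4 leaves) and spray. Compound in non-phytotoxic solvent with surfactant; keep in greenhouse 13–15 d; score visually against controls, 0 (none) to 100 (full control).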

soybean (Glycine max) = experiment: Test C preemergence; assay type: in vivo; settings: for Plant response rating, Soybean: scale 0 to 100, 0 no effect, 100 complete control
Procedure, shortened: as §2

[6] = system: johnsongrass (Sorghum halepense); experiment: Test C preemergence; assay type: in vivo; settings: for Plant response rating, Johnsongrass: scale 0 to 100, 0 no effect, 100 complete control
Procedure, shortened: as §2

[7] = system: waterhemp (common waterhemp, Amaranthus rudis); experiment: Test C preemergence; assay type: in vivo; settings: for Plant response rating, Waterhemp: scale 0 to 100, 0 no effect, 100 complete control
Procedure, shortened: as §2

corn (Zea mays) = experiment: Test C preemergence; assay type: in vivo; settings: for Plant response rating, Corn: scale 0 to 100, 0 no effect, 100 complete control
Procedure, shortened: as §2

[8] = system: ragweed (common ragweed, Ambrosia elatior); experiment: Test C preemergence; assay type: in vivo; settings: for Plant response rating, Ragweed: scale 0 to 100, 0 no effect, 100 complete control
Procedure, shortened: as §2

[9] = system: blackgrass (Alopecurus myosuroides); experiment: Test C preemergence; assay type: in vivo; settings: for Plant response rating, Blackgrass: scale 0 to 100, 0 no effect, 100 complete control
Procedure, shortened: as §2

[10] = system: lambsquarters (Chenopodium album); experiment: Test C preemergence; assay type: in vivo; settings: for Plant response rating, Lambsquarters: scale 0 to 100, 0 no effect, 100 complete control
Procedure, shortened: as §2

[11] = system: Galium (catchweed bedstraw, Galium aparine); experiment: Test C preemergence; assay type: in vivo; settings: for Plant response rating, Galium: scale 0 to 100, 0 no effect, 100 complete control
Procedure, shortened: as §2

[12] = 31 g ai/ha, 0 is no effect, 100 is complete control

CN1C[C@H](c2ccc(F)c(F)c2)[C@@H](C(=O)Nc2cccc(F)c2F)C1=O [Compound 639, (3S,4S)—N-(2,3-difluorophenyl)-4-(3,4-difluorophenyl)-1-methyl-2-oxo-3-pyrrolidinecarboxamide]
pest or weed control at 125 g/ha ([1]; postemergence, visual rating after approx. 10 d, 0 to 100 scale (0 no effect, 100 complete control), read-out: Plant response rating, Blackgrass): 60% | pest or weed control at 500 g/ha ([1]; Postemergence, 0 to 100 scale where 0 is no effect and 100 is complete control, read-out: Plant response rating, Blackgrass): 60% | Plant response rating, Barnyardgrass ([2]; 13 to 15 d): 80 | Plant response rating, Rice (rice (Oryra sativa); 13 to 15 d): 0 | Plant response rating, Ducksalad ([3]; 13 to 15 d): 100 | Plant response rating, Sedge, Umbrella ([4]; 13 to 15 d): 0 | Plant response rating (scale of 0 to 100), Ryegrass, Italian [5, 12]: 25 | Plant response rating, Ryegrass, Italian ([5]; 62 g ai/ha): 60 | Plant response rating, Ryegrass, Italian ([5]; 125 g ai/ha): 60 | Plant response rating, Ryegrass, Italian ([5]; 250 g ai/ha): 70 | Plant response rating (scale of 0 to 100), Soybean (soybean (Glycine max); [12]): 0 | Plant response rating, Soybean (soybean (Glycine max); 62 g ai/ha): 0 | Plant response rating, Soybean (soybean (Glycine max); 125 g ai/ha): 10 | Plant response rating, Soybean (soybean (Glycine max); 250 g ai/ha): 20 | Plant response rating (scale of 0 to 100), Johnsongrass [6, 12]: 20 | Plant response rating, Johnsongrass ([6]; 62 g ai/ha): 65 | Plant response rating, Johnsongrass ([6]; 125 g ai/ha): 80 | Plant response rating, Johnsongrass ([6]; 250 g ai/ha): 90 | Plant response rating (scale of 0 to 100), Waterhemp [7, 12]: 50 | Plant response rating, Waterhemp ([7]; 62 g ai/ha): 65 | Plant response rating, Waterhemp ([7]; 125 g ai/ha): 75 | Plant response rating, Waterhemp ([7]; 250 g ai/ha): 80 | Plant response rating (scale of 0 to 100), Corn (corn (Zea mays); [12]): 5 | Plant response rating, Corn (corn (Zea mays); 62 g ai/ha): 40 | Plant response rating, Corn (corn (Zea mays); 125 g ai/ha): 80 | Plant response rating, Corn (corn (Zea mays); 250 g ai/ha): 85 | Plant response rating (scale of 0 to 100), Ragweed [8, 12]: 5 | Plant response rating, Ragweed ([8]; 62 g ai/ha): 60 | Plant response rating, Ragweed ([8]; 125 g ai/ha): 75 | Plant response rating, Ragweed ([8]; 250 g ai/ha): 80 | Plant response rating (scale of 0 to 100), Blackgrass [9, 12]: 40 | Plant response rating, Blackgrass ([9]; 62 g ai/ha): 85 | Plant response rating, Blackgrass ([9]; 125 g ai/ha): 85 | Plant response rating, Blackgrass ([9]; 250 g ai/ha): 90 | Plant response rating (scale of 0 to 100), Lambsquarters [10, 12]: 20 | Plant response rating, Lambsquarters ([10]; 62 g ai/ha): 25 | Plant response rating, Lambsquarters ([10]; 125 g ai/ha): 40 | Plant response rating, Lambsquarters ([10]; 250 g ai/ha): 70 | Plant response rating (scale of 0 to 100), Galium [11, 12]: 85 | Plant response rating, Galium ([11]; 62 g ai/ha): 80 | Plant response rating, Galium ([11]; 125 g ai/ha): 85 | Plant response rating, Galium ([11]; 250 g ai/ha): 95

CCc1cc([C@H]2CN(C)C(=O)[C@@H]2C(=O)Nc2ccccc2F)cs1 [Compound 1156]
pest or weed control at 125 g/ha ([1]; postemergence, visual injury vs untreated controls after approx. 10 d, 0 = no effect, 100 = complete control, read-out: Blackgrass plant response rating (0 to 100 scale)): 0% | pest or weed control at 500 g/ha ([1]; postemergence, 0 to 100 scale, 0 is no effect, 100 is complete control, read-out: Blackgrass plant response rating): 40% | pest or weed control at 250 g/ha ([2]; Echinochloa crus-galli, read-out: Barnyardgrass plant response rating): 40% | pest or weed control at 250 g/ha (rice (Oryra sativa); Oryza sativa, read-out: Rice plant response rating): 20% | pest or weed control at 250 g/ha ([3]; Heteranthera limosa, read-out: Ducksalad plant response rating): 100% | pest or weed control at 250 g/ha ([4]; Cyperus difformis, read-out: Sedge, Umbrella plant response rating): 0% | melting point: 117 to 121 °C
